Calls of active or inactive are those of the source.
Tests used:
[1] = target: T1, Tyrosine-protein phosphatase non-receptor type 5 (Homo sapiens, UniProt P54829); assay: PTPN5 enzyme inhibition – biochemical, fluorescence intensity, uHTS hits, confirmation (AID 602372); format: functional; details: read-out: IC50_Mean
T1 sequence (P54829 whole entry): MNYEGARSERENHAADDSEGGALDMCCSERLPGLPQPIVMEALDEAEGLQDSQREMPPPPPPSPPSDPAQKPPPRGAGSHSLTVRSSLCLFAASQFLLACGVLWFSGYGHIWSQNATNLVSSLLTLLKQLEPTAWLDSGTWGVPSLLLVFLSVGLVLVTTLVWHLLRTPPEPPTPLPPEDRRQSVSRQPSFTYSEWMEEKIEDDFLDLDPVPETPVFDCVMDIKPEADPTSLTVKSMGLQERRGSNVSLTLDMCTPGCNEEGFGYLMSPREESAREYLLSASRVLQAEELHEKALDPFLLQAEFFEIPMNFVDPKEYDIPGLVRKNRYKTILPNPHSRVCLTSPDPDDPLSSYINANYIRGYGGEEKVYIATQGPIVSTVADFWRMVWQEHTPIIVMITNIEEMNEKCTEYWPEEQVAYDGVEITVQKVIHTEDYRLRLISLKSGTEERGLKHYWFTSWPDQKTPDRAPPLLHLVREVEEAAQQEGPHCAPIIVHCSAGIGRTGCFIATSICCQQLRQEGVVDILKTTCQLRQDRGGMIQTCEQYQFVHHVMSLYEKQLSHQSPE

[2] = target: Dual specificity protein phosphatase 3 (Homo sapiens, UniProt P51452); assay: VHR phosphatase inhibition, dose response, selectivity assay for STEP inhibitor project, biochemical (AID 602374); format: functional; details: read-out: IC50_Mean
[3] = target: T2, Tyrosine-protein phosphatase non-receptor type 11 (Homo sapiens, UniProt Q06124); assay: PTPN11 enzyme inhibitors – biochemical, selectivity assay for STEP inhibitor project, dose response (AID 602367); format: functional; details: read-out: IC50_Mean
T2 sequence (Q06124 whole entry): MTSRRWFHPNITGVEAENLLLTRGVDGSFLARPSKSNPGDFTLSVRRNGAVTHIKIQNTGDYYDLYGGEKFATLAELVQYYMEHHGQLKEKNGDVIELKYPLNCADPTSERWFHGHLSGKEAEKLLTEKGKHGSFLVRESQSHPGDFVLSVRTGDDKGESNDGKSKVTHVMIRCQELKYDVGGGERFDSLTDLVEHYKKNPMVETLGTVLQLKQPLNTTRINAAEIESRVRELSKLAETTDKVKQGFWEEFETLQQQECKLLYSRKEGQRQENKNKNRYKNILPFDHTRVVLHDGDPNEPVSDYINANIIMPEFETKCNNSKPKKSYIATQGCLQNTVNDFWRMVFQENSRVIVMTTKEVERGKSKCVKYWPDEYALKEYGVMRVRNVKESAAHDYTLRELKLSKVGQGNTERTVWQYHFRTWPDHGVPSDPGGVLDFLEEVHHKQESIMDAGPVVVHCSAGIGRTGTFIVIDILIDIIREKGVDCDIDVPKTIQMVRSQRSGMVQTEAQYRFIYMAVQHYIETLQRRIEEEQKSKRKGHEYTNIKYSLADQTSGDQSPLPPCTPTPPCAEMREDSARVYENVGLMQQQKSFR

Galanin receptor type 3 = target: T3, Galanin receptor type 3 (Homo sapiens, UniProt O60755); assay: Fluorescence-based cell-based primary high throughput dose response assay to identify antagonists of the Galanin Receptor 3 (GalR3).; format: functional
T3 sequence (O60755 whole entry): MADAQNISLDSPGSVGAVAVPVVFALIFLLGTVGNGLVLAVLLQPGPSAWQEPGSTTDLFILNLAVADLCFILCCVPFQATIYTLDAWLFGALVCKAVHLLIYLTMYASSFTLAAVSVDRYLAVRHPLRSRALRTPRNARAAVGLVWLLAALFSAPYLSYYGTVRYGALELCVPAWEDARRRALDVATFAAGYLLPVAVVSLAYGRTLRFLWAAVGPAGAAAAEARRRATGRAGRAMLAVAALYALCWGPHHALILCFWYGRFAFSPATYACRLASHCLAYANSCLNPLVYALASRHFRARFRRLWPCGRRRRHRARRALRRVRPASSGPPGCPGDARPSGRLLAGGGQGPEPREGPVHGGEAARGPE

cells = format: functional, cell-based; details: HEK-CNG
[4] = loss of viability in HepG2 cells – cell-based, CellTiter-Glo, cherry-picked, cytotoxicity control for Shn3 inhibitor project, dose response (AID 624134); format: functional
[5] = blockers of bursicon-stimulated LGR2 cAMP reporter – cell-based, HEK293, CRE-luciferase reporter, cherry pick, set 2, dose response (AID 743343); format: functional;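 further: transfected cells were stimulated with diluted bursicon conditioned medium after compound addition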
Protein Wnt-3a = Protein Wnt-3a (Mus musculus, UniProt P27467); assay: antagonism of Wnt3a pathway luciferase reporter – Wnt-LIGHT cells, luminescence, selectivity assay for Gli-SUFU antagonist project, dose response (AID 651570); format: functional; details: read-out: IC50_Mean;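 further: Wnt-LIGHT reporter cells stimulated with conditioned medium from Wnt3a-producing cells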
INS1 = assay: INS-1E survival protection against cytokine death – cell-based, luminescence, retest, dose response (AID 449756); format: functional; details: Rattus norvegicus;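 further: cell death triggered by IL-1 beta plus TNF-alpha plus IFN-gamma mixture; protective hits raise ATP signal compared with cytokine alone wells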
[6] = blockade of melanocortin 4 receptor signaling – cell-based, plate reader, cherry pick, counter-screen for LGR2 antagonist project, dose response (AID 743444); format: functional;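 further: transfected HEK 293 cells stimulated with alpha-MSH peptide; potency of inhibitors of the alpha-MSH evoked signal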
[7] = reduction of Shn3 3'UTR-driven luciferase in osteoblasts – cell-based, Clone20 osteoblasts, firefly luciferase, cherry-picked, dose response (AID 624132); format: functional;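 further: firefly luciferase luminescence from reporter carrying the Shn3 3'UTR in osteoblasts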
[8] = A549 cell cytotoxicity, dose response, cytotoxicity control, plate reader, cherry-pick, antagonist series (AID 743412); format: functional, cell-based
[9] = toxicity toward HepG2 liver cells – cell-based, plate reader, cherry-pick, antagonist series, cytotoxicity control, dose response (AID 743416); format: functional
[10] = non-specific 3'UTR reporter inhibition in Clone20-Shn3RL – cell-based, Renilla luciferase, cherry-picked, counter-screen for Shn3 inhibitor project, dose response (AID 624133); format: functional
[11] = target: T4, Small ubiquitin-related modifier 1 (Homo sapiens, UniProt P63165); assay: SUMO1 protein interaction blockers, potency – biochemical, fluorescence polarization, uHTS hits, dose response (AID 624382); format: functional; details: read-out: IC50_Mean
[12] = target: T5, Carboxy-terminal domain RNA polymerase II polypeptide A small phosphatase 1 (Homo sapiens, UniProt Q9GZU7); assay: CTDSP1 inhibitors, concentration-response, biochemical, absorbance readout, ultra-high-throughput screen actives (AID 540297); format: functional
T5 sequence (Q9GZU7 whole entry): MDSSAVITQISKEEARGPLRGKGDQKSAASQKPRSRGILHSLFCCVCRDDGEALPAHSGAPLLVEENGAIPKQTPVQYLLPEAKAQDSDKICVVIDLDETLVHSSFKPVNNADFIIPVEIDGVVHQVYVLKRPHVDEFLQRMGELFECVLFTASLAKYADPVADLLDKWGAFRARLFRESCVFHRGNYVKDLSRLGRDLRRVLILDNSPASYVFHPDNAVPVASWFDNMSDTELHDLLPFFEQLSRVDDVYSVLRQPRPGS

[13] = target: T4, Small ubiquitin-related modifier 1; assay: SUMO1 protein-protein binding blockers, potency – biochemical, FRET, dose response (AID 624383); format: functional; details: read-out: IC50_Mean
[14] = HEK-293T viability loss after treatment – luminescence, T-cell screen hits, cytotoxicity control for TCR NF-kB inhibitor project, dose response (AID 489026); format: functional, cell-based;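 further: cells exposed to compound about 14 hours before the viability readout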
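Wherever EC50 is given: target is galanin receptor GalR3 read with a cAMP biosensor in HEK293 cells.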

T4 sequence (P63165 whole entry, the tested form may be a part): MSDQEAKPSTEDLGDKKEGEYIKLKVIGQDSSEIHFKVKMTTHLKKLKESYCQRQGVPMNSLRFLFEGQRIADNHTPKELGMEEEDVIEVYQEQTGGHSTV
Chain of Protein Wnt-3a (P27467 whole entry): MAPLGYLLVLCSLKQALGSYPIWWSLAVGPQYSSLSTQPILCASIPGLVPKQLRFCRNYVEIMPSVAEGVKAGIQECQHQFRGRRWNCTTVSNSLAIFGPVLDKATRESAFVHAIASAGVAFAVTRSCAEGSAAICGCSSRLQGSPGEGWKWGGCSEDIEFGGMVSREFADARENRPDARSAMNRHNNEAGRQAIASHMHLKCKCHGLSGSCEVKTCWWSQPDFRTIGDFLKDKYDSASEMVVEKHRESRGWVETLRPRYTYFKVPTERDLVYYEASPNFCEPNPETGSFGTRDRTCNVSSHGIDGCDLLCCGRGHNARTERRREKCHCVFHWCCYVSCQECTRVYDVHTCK
Chain of Dual specificity protein phosphatase 3 (P51452 whole entry): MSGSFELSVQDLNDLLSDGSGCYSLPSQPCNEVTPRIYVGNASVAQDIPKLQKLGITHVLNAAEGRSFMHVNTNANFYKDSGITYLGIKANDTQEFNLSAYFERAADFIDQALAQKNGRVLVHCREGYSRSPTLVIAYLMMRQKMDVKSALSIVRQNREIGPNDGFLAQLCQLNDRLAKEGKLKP

Cc1sc2nc(CSC(C)C(=O)Nc3ccc(Cl)cn3)nc(O)c2c1C (stereo not drawn)
IC50 [1]: 15.6 µM (active) | IC50 [2]: 0.927 µM (active) | IC50 [3]: 5.47 µM (active)

COc1c(/C=C2\SC(Nc3ccccc3Cl)=NC2=O)cccc1[N+](=O)[O-]
IC50 (Galanin receptor type 3): 0.547 µM (active) | EC50 (cells): > 29.9 µM (inactive)

Cc1cc(C)c(C)c(S(=O)(=O)N2CCN(c3ncnc4ccccc34)CC2)c1C
AC50 [4]: 1.91 µM (active) | AC50 [5]: 24.9 µM (active) | IC50 (Protein Wnt-3a): 1.96 µM (active) | AC50 (INS1): 2.22 µM (active) | AC50 [6]: 34.2 µM (active) | AC50 [7]: 1.46 µM (active) | AC50 [8]: 31.4 µM (active) | AC50 [9]: 4.26 µM (active) | AC50 [10]: 1.86 µM (active)

CCOC(=O)c1cc(-c2ccc(OC)cc2)nn1-c1ccccc1C(=O)O
IC50 [11]: > 66.6 µM (inactive) | IC50 [12]: 14.5 µM (active) | IC50 [13]: 21.8 µM (inactive)

Cc1ncoc1C(=O)NC1CCCc2c1cnn2-c1ccc(C(C)(C)C)cc1 (stereo not drawn)
IC50 [14]: > 80 µM (inactive) | IC50 (Protein Wnt-3a): 4.53 µM (active)

O=C(CSc1nc(C2CC2)nc2ccccc12)Nc1cccc(O)c1
IC50 [11]: > 66.6 µM (inactive) | IC50 [13]: 20.4 µM (inactive)

COc1ccc(C2=CC(c3ccc4c(c3)OCO4)c3c(c4ccccc4oc3=O)O2)cc1OC (stereo not drawn)
IC50 (Galanin receptor type 3): 5.72 µM (active) | EC50 (cells): > 29.9 µM (inactive)

O=C(Nc1ccc2oc(=O)ccc2c1)c1ccc(-c2ccccc2[N+](=O)[O-])o1
IC50 [11]: > 66.6 µM (inactive) | IC50 [13]: 10.2 µM (active)

CNS(=O)(=O)c1cccc(C(=O)OCC(=O)c2cc(C)n(CC3CCCO3)c2C)c1 (stereo not drawn)
IC50 (Protein Wnt-3a): 28.9 µM (inactive)

COc1ccc(N(CC(=O)NCc2cccs2)S(=O)(=O)c2ccc(C(C)=O)cc2)cc1
AC50 [9]: > 52 µM (inactive)

COc1cccc(Nc2nn3c(=O)c4ccccc4nc3s2)c1
IC50 [1]: 24.9 µM (inactive) | IC50 [2]: 6.62 µM (active) | IC50 [12]: 12.8 µM (active) | IC50 [3]: 9.22 µM (active)

O=C(NCCCl)NNc1c(Cl)cc(Cl)cc1Cl
IC50 (Galanin receptor type 3): > 29.9 µM (inactive) | EC50 (cells): > 29.9 µM (inactive)
